Data: PubChem BioAssay AID1902 (Broad Institute, 2009)
Active and inactive are the calls of the source.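 How the source made its calls: active means EC50 no more than a set limit of log units above the highest dose; inactive means the rest.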

biological target: S. pyogenes SKKanGAS, kanamycin survival, BacTiterGlo, 6 h; assay: SKKanGAS survival reduction under kanamycin, dose response, streptokinase promoter inhibitor project, SKKanGAS strain, luminescence, dose confirmation (AID 1902);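 further: lower survival reflects blocked streptokinase promoter driving kanamycin resistance gene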

| Structure (SMILES) | EC50 |
| --- | --- |
| CCOc1cccc2sc(Nc3nc4ccc(NC(C)=O)cc4s3)nc12 | 4690 nM |
| Cn1ccc(=Nc2ccc(NC(=O)c3ccc(N=c4ccn(C)c5ccc([N+](=O)[O-])cc45)cc3)cc2)cc1 | 357 nM |
| CC1=NNC(=O)/C1=C\c1cn(-c2ccccc2)nc1-c1ccc(Cl)cc1 | 5670 nM |
| Cc1ccc(C)c(-c2nnc(NC(=O)COc3ccccc3)o2)c1 | 1700 nM |
| CN(c1ccccc1)S(=O)(=O)c1ccc(C(=O)Nc2nnc(-c3ccc(F)cc3)o2)cc1 | 225 nM |
| Cc1ccc(C(=O)NC2CCCC2)s1 | > 15000 nM (inactive) |
| COc1c(N2CCN(C(=S)Nc3ccccc3F)C(C)C2)c(F)cc2c(=O)c(C(=O)O)cn(C3CC3)c12 (stereo unspecified) | 2660 nM |
| Cc1cc(Br)cc(/C=N/NC(=O)c2ccc3c(c2)OCO3)c1O | 1900 nM |
| COc1cccc2c1C(=O)c1c(O)c3c(c(O)c1C2=O)C[C@@](O)(C(=O)CO)C[C@@H]3O[C@H]1C[C@H](N)[C@H](O)[C@H](C)O1 | 1150 nM |
| CCc1ccc(S(=O)(=O)/N=C2\C=C(Nc3ccc(O)cc3)C(=O)c3ccccc32)cc1 | 1510 nM |
| CCCc1cc2c(-c3ccccc3)cc(=O)oc2cc1OCc1ccc(C(=O)O)o1 | 8900 nM |
| CC(C)(O)c1[nH]c2cc(F)ccc2c1C(C)(C)O | 1670 nM |
| Cc1ccccc1/C=C1\Sc2ccc(C(=O)N3CCN(c4ccccn4)CC3)cc2N(C)C1=O | 6470 nM |
| O=C(CCc1ccccc1)NNC(=S)NC(=O)c1ccc(Cl)cc1 | 203 nM |
| Cc1cccc(/C=c2\s/c(=C\C(=O)C(C)(C)C)[nH]c2=O)c1 | 2340 nM |
| Cc1onc(-c2ccccc2)c1C(=O)NC(=S)NNC(=O)c1ccc(O)cc1O | 2670 nM |
| Cc1cccc(-n2c(N)c(-c3nc4ccccc4n3C)c3nc4ccccc4nc32)c1 | 2260 nM |
| Cc1ccc(Cc2cnc(N3C(=N)SC(c4ccccc4)C3=O)s2)cc1 (stereo unspecified) | 105 nM |
| CCOC(=O)c1ccc(NC(=O)CC2S/C(=N/N=C/c3c[nH]c4ccccc34)NC2=O)cc1 (stereo unspecified) | 7730 nM |
| CCCCn1c(NS(=O)(=O)c2ccccc2)c(S(=O)(=O)c2ccc(C)cc2)c2nc3ccccc3nc21 | 3430 nM |
| CC(C)(C)NC(=O)C1CC2CCCCC2CN1 (stereo unspecified) | > 15000 nM (inactive) |
| Cc1cc(-c2csc3nc[nH]c(=S)c23)cc(C)c1C | 1670 nM |

| Structure (SMILES) | EC50 |
| --- | --- |
| CCCc1cc(=O)n2[nH]cc(-c3ccc(Cl)cc3)c2n1 | 1780 nM |
| Cc1cccc(CSc2ncnc3c2cnn3Cc2ccccc2)c1 | 4580 nM |
| CC[C@H]1OC(=O)[C@H](C)[C@@H](O[C@H]2C[C@@](C)(OC)[C@@H](O)[C@H](C)O2)[C@H](C)[C@@H](O[C@@H]2O[C@H](C)C[C@H](N(C)C)[C@H]2O)[C@](C)(O)C[C@@H](C)C(=NOCOCCOC)[C@H](C)[C@@H](O)[C@]1(C)O | < 60 nM |
| N#Cc1c(-c2ccccc2)nc(SCC(=O)N2c3ccccc3Sc3ccccc32)[nH]c1=O | 3870 nM |
| O=C(Nc1cccc(NC(=O)c2ccc([N+](=O)[O-])o2)c1)c1ccco1 | 6610 nM |
| O=C(Nc1nc2ccccc2n1Cc1ccccc1)c1ccco1 | 2910 nM |
| CC(C)c1ccccc1OCC(=O)NC1CCCc2ccccc21 (stereo unspecified) | 11700 nM |
| CC1CCN(C(=O)N2c3ccccc3Sc3ccccc32)CC1 | 9990 nM |
| COc1ccc2nc(N3C(=O)CNC3=S)sc2c1 | 2890 nM |
| COc1cnc(-c2ccccn2)nc1Oc1ccc(Cl)c2ccccc12 | 142 nM |
| Cn1c(-c2cc(Br)ccc2O)n[nH]c1=S | 9920 nM |
| Oc1ccc(/C=N/N(Cc2ccccc2)c2ccccc2)cc1 | 6160 nM |
| CCOC(=O)C1=C(Cc2ccc(C)cc2)C(=O)c2ccccc2C1=O | 4640 nM |
| O=S(=O)(Cc1cc(NCc2ccccc2)nc(-c2ccccn2)n1)c1ccccc1 | 808 nM |
| C=CC1=C(C(=O)O)N2C(=O)[C@@H](NC(=O)/C(=N/OCC(=O)O)c3csc(N)n3)[C@H]2SC1 | < 60 nM |
| C[C@]12CC[C@@H]3c4ccc(OC(=O)c5ccccc5)cc4CC[C@H]3[C@@H]1CC[C@@H]2O | 1920 nM |
| CC(C)(C)c1cc(-c2csc(Nc3ccccc3)[n+]2Cc2ccc(C(=O)O)cc2)cc(C(C)(C)C)c1O | 2150 nM |
| O=[N+]([O-])c1ccc(O)c(-c2nc(-c3ccccc3)c(-c3cccs3)[nH]2)c1 | 979 nM |
| O=C(/C=C/c1cn(-c2ccccc2)nc1-c1ccccc1)Nc1ccc(C(=O)O)cc1 | 3760 nM |
| COc1ccc(Br)cc1[C@H]1[C@@H]2C=CCC[C@@]2(C)C(=O)N1Cc1ccccc1 | 4920 nM |
| Nc1nonc1-c1nc2ccccc2n1CC(=O)N/N=C/c1ccc(-c2cccc(C(=O)O)c2)o1 | 3020 nM |
| COc1ccc(C(=O)Nc2sc(C)c(-c3ccccc3)c2C#N)cc1OC | 13300 nM |

| Structure (SMILES) | EC50 |
| --- | --- |
| Oc1ccccc1/C=N/NC(=S)NC1CC2CCC1C2 (stereo unspecified) | 3740 nM |
| Cc1nn2c(COc3ccc(NC(=O)c4ccccc4Cl)cc3)nnc2c2ccccc12 | 1630 nM |
| CCOc1ccc(N=Nc2ccc(O)c3ncccc23)cc1 | 186 nM |
| O=C(CSc1ccccn1)N/N=C/c1cc([N+](=O)[O-])ccc1O | 1040 nM |
| CN(Cc1ccc(OC(F)F)cc1)Cc1nc2c(Br)cc(Br)cc2c(=O)[nH]1 | 2980 nM |
| O=C(N/N=C/c1cc(Br)cc(Br)c1O)c1ccncc1 | 658 nM |
| O=C(Nc1nnc(-c2ccco2)o1)c1ccc(Cl)s1 | 1710 nM |
| Cc1ccccc1NS(=O)(=O)c1ccc(C)c(C(=O)N2CCOCC2)c1 | > 15000 nM (inactive) |
| CCn1cc(C(=O)O)c(=O)c2cc(F)c(N3CCN(C(=S)Nc4ccc(OC)cc4)CC3)cc21 | 3180 nM |
| O=C(N/N=C/c1cc([N+](=O)[O-])ccc1O)c1cc(-c2ccccc2)nc2ccccc12 | 603 nM |
| COc1ccc(N=Nc2cc(-c3ccccc3)ccc2O)cc1 | 13100 nM |
| O=C(/C=C/c1cccc(Cl)c1)c1ccc([N+](=O)[O-])o1 | 2230 nM |
| Brc1cc(-c2ccccc2)nc(-c2ccccc2)n1 | 12100 nM |
| O=[N+]([O-])c1ccc(-c2cnc(SC(c3ccccc3)c3ccccc3)[nH]2)cc1 | 11000 nM |
| COc1ccc(C(=O)O)cc1NC(=S)NC(=O)c1ccc(-c2ccc(Cl)cc2)o1 | 2300 nM |
| CCOC(=O)N1CCC(N2Cc3cccc(C(=O)Nc4ccc(F)cc4)c3C2=O)CC1 | 5900 nM |
| O=S(=O)(Nc1cccc2ncccc12)c1cccs1 | 2760 nM |
| COc1ccc(-c2nc(-c3cccs3)c(-c3cccs3)[nH]2)cc1OC | 4320 nM |
| Cc1cc(C(=O)N/N=C/c2ccc([N+](=O)[O-])s2)n[nH]1 | 2390 nM |
| O=C(N/N=C/c1cc([N+](=O)[O-])ccc1O)c1cccc(NC(=O)c2cccc(Cl)c2)c1 | 4690 nM |
| C=C1SC(=Nc2ccccc2Cl)N(C(=O)c2sc3ccccc3c2Cl)C12CCCCC2 | 3480 nM |
| NNc1nc(Nc2ccccc2)nc(Nc2ccccc2)n1 | 4040 nM |

| Structure (SMILES) | EC50 |
| --- | --- |
| CC(C)(C)c1cc(Cl)c(O)c(NC(=S)NC(=O)c2cccnc2)c1 | 346 nM |
| COc1ccc(C(=O)CC(=O)C(=O)Nc2ccccc2C(F)(F)F)cc1 | 2050 nM |
| CCc1sc(N(C(=O)Cc2ccccc2)c2ccc(F)cc2)nc1-c1ccccc1 | 2540 nM |
| Cc1ccc(C(=O)Nc2nnc(S(=O)(=O)N3CCN(c4ccc(F)cc4)CC3)s2)cc1 | > 15000 nM (inactive) |
| c1ccc(CCNc2nc(-c3ccccn3)cs2)cc1 | 3710 nM |
| Cc1cc(C)c(C)c(OCCCOc2cccc3cccnc23)c1 | 13500 nM |
| CNC(=S)N1CCN(c2c(F)cc3c(=O)c(C(=O)O)cn(C4CC4)c3c2OC)CC1C (stereo unspecified) | 160 nM |
| Cc1ccc(CN(C(=O)c2ccco2)C2CCS(=O)(=O)C2)cc1 (stereo unspecified) | > 15000 nM (inactive) |
| CC(C)CC(=O)NC(NC(=S)Nc1sc2c(c1C#N)CCCC2)C(Cl)(Cl)Cl (stereo unspecified) | 1660 nM |
| O=c1c2ccccc2oc2cc(-c3ccc4[nH]ccc4c3)ccc12 | 4850 nM |
| COCc1cc(=O)[nH]c(Nc2nc3ccccc3o2)n1 | 2660 nM |
| CCN(CC)c1nc(Nc2ccc([N+](=O)[O-])cc2)nc(N(CC)CC)n1 | 3150 nM |
| COc1cccc(NP(=O)(Oc2ccc(Cl)cc2)Oc2ccc(Cl)cc2)c1 | 3220 nM |
| O=C(NNC(=S)NC(=O)c1cccnc1)c1ccc(Cl)cc1 | 2640 nM |
| CC1CCc2c(sc3nc(C4CC4)nc(N4CCN(C(=O)c5ccco5)CC4)c23)C1 (stereo unspecified) | 3840 nM |
| CCOc1ccc(N(CC(=O)NCc2ccc(C)cc2)S(=O)(=O)c2c(C)[nH]c(=O)[nH]c2=O)cc1 | > 15000 nM (inactive) |
| Cc1ccccc1C(=O)Nc1scc(-c2ccc(Br)cc2)c1C(=O)O | 1820 nM |
| O=C(OCc1csc(Nc2ccccc2)n1)c1ccc(Cl)cc1 | 14300 nM |
| CN(CC1CCCO1)S(=O)(=O)c1ccc(C(=O)Nc2ccccc2F)cc1 (stereo unspecified) | > 15000 nM (inactive) |
| C=CCSc1nsc(NC(=O)Nc2ccc(F)cc2)n1 | 3700 nM |
| COCCNC(=O)c1c(NC(=O)c2ccco2)n(Cc2ccccc2)c2nc3ccccc3nc12 | 8510 nM |
| COc1ccc(-c2cc(-c3ccc(C)cc3)n[nH]2)c(O)c1 | 2760 nM |

| Structure (SMILES) | EC50 |
| --- | --- |
| CCn1c(=O)c(C(=O)Nc2nc3ccccc3[nH]2)c(O)c2ccccc21 | 1030 nM |
| Cc1cccc(C)c1Nc1c(-c2ccccn2)nc2ccccn12 | 6670 nM |
| Cc1cc(N2CCC(C)CC2)nc(-n2nc(C)cc2C)n1 | 7730 nM |
| O=[N+]([O-])c1cc(Br)c(O)c(/C=N/Nc2nnnn2-c2cccc3ccccc23)c1 | 5440 nM |
| O=C1c2[nH]nc(-c3ccccc3O)c2C(c2cccc(Cl)c2)N1Cc1ccco1 (stereo unspecified) | 7400 nM |
| Cc1ccc(-c2nn(-c3ccccc3)cc2/C=N/n2c(-c3cccs3)n[nH]c2=S)cc1 | 1950 nM |
| COc1cc(O)c(CC=C(C)C)c(O)c1C(=O)CCc1ccc(O)cc1 | 2760 nM |
| CC(Oc1cccc(Cl)c1)C(=O)Nc1ccccc1N1CCCCC1 (stereo unspecified) | 3040 nM |
| O=C(OCc1ccc(COC(=O)c2ccc(O)cc2)cc1)c1ccc(O)cc1 | 2210 nM |
| COC(=O)c1c(NC(NC(=O)C(C)(C)C)C(Cl)(Cl)Cl)sc2c1CCC2 (stereo unspecified) | 3280 nM |
| CCC(=O)Nc1nc2ccccc2n1Cc1ccccc1C | 1620 nM |
| CC1CC(C)CN(c2ncc3c(n2)CC(c2ccccc2Cl)CC3=O)C1 (stereo unspecified) | 4330 nM |
| CSc1n[nH]c2nc3c(c(=O)n12)C1(CCCCC1)Cc1ccccc1-3 | 10500 nM |
| O=C(O)CC/C(=C\c1cc2c(cc1Br)OCO2)c1nc2ccccc2s1 | 10500 nM |
| CCCc1nc(NCc2ccccc2)c(C#N)c2c1CCCC2 | 2930 nM |
| Oc1c(N=Nc2ccccn2)ccc2ccccc12 | 2580 nM |
| O=C(Nc1cccc(C(F)(F)F)c1)c1cc2c(=O)c3ccccc3oc2nc1C(F)(F)F | 7270 nM |
| Cc1cc(C)c2[nH]c(O)c(N=Nc3ccc(C(=O)O)cc3)c2c1 | 1800 nM |
